These results are taken from US5164300A, “Method for determining activity of retroviral protease” (Washington University, priority 1990, dated 1992).

What is called Km is the concentration of substrate that gives half-maximal velocity.

Where a SMILES comes first, the peptide text is derived from it. [ ]: non-standard residue; d: D form. Phe(4-NO2) = N[C@@H](Cc1ccc([N+](=O)[O-])cc1)C(=O)O; Nle = CCCC[C@H](N)C(=O)O; 2Abz = Nc1ccccc1C(=O)O

The target in one experiment is T1, HIV protease (HIV-1 M:B_ARV2/SF2, UniProt P03369).
T1 construct: synthetic [Aba67,Aba95] homodimer (Schneider and Kent) or cloned enzyme from E. coli, interchangeably
Kind of experiment: HPLC HIV protease assay (cleavage of peptide substrates). The format is biochemical, human immunodeficiency virus (HIV). The procedure: HPLC Assay. The HPLC HIV protease assay was conducted using either synthetic HIV protease [Schneider and Kent, Cell 54, 363-368 (1988)] in which the two Cys residues (Cys^67, Cys^95) were replaced by the isosteric α-aminobutyric acid to eliminate the complications of free sulfhydryl groups, or cloned material expressed in E. coli. In all cases examined, the cleavage patterns and inhibition results were identical. Synthetic HPLC-purified protease (0.05 mg/ml) was dissolved in assay buffer (20 mM phosphate, 20% glycerol, 0.1% CHAPS, pH 6.4). 20 μl of 0.1 mM substrate was mixed with 20 μl assay buffer and 10 μl of HIV protease stock were added and then incubated at 25° for the desired time. The reaction was stopped by the addition of 50 μl of 10% TFA. The sample was applied to a C18 HPLC column developed with 0.05% TFA for 5 min followed by a gradient of 0- 40% acetonitrile in 40 min. For inhibitor studies, 10 μl of the protease solution was preincubated at 25° for 10 min with the 20 μl of 0.1 mM inhibitor (dissolved in DMSO and diluted to 0.1 mM with assay buffer). Then 20 μl of test substrate, acetyl-Thr-Ile-Met-Met-Gln-Arg-NH2 or Abz-NF^* -6, was added in order to determine inhibition of cleavage. Reactions were stopped and cleavage rates were monitored by HPLC as above. […]
Fluorescence Assay. Fluorescence measurements on 96-well ELISA plates were made with the Titertek Fluoroskan II, version 3.1. […] Ten μl of a stock solution (0.1 mg/ml) of HIV protease was incubated with five different concentrations of Abz-NF^* -6 in a final volume of 100 μl at 37° C. with the increase in fluorescence monitored in each well every five minutes. […] A standard curve relating changes in fluorescent intensity to changes in concentration of product was used to convert fluorescence changes into molar velocities. […] Sixty μl of 10% TFA was added to stop the reaction and the amount of cleavage determined by HPLC. […] By the amount of substrate remaining, an estimated Ki allows appropriate choice of concentration ranges for the inhibitor for the fluorescence assay.

Experiment [1] has as its system purified HIV protease expressed in E. coli. The conditions noted are these: estimated, Nashed et al.; cited from earlier work.
The next experiment has as its target T2, synthetic HIV protease (HIV-1 M:B_ARV2/SF2, UniProt P03369).
T2 construct: homodimer
As to the kind of experiment: Fluorescence assay, kinetic measurements of cleavage by synthetic HIV protease. The format is biochemical, human immunodeficiency virus (HIV). The procedure: Fluorescence Assay. Fluorescence measurements on 96-well ELISA plates were made with the Titertek Fluoroskan II, version 3.1. An excitation filter of 355 nm and an emission filter of 430 nm was used. Ten μl of a stock solution (0.1 mg/ml) of HIV protease was incubated with five different concentrations of Abz-NF^* -6 in a final volume of 100 μl at 37° C. with the increase in fluorescence monitored in each well every five minutes. A stock solution of 1 mM Abz-NF^* -6 in DMSO was used. A standard curve relating changes in fluorescent intensity to changes in concentration of product was used to convert fluorescence changes into molar velocities. In order to predetermine the concentration range for Ki determination of inhibitors, it was found convenient to do a preliminary assay by HPLC. Twenty μl of 0.1 mM inhibitor in assay buffer (pH 6.4) and 10 μl of HIV protease (stock solution of 0.05 mg/ml) were preincubated for 5-10 min at 25° C. Twenty μl of 0.1 mM Abz-NF^* -6 was added and the reaction continued for 1 hour. Sixty μl of 10% TFA was added to stop the reaction and the amount of cleavage determined by HPLC. […] By the amount of substrate remaining, an estimated Ki allows appropriate choice of concentration ranges for the inhibitor for the fluorescence assay.
The chromogenic substrates of Nashed et al., Biochem. Biophys. Res. Commun. 163, 1079-1085 (1989), had Km 's estimated to be greater than […].

As for `CCCC[C@H](NC(=O)[C@@H](NC(=O)[C@@H](NC(C)=O)[C@@H](C)O)[C@@H](C)CC)C(=O)N[C@@H](Cc1ccc([N+](=O)[O-])cc1)C(=O)N[C@@H](CCC(N)=O)C(=O)N[C@@H](CCCNC(=N)N)C(N)=O` [Ac-Thr-Ile-Nle-Phe(p-NO2)-Gln-Arg-NH2] (Ac-TI[Nle][Phe(4-NO2)]QR-NH2), on HIV protease (incubation times of one hour), the “cleavage under the conditions of HPLC assay” value is “showed cleavage”.

`CC(C)C[C@H](NC(=O)[C@@H]1CCCN1C(=O)[C@H](Cc1ccc([N+](=O)[O-])cc1)NC(=O)[C@H](C)NC(=O)[C@H](CCC(N)=O)NC(=O)[C@H](Cc1ccccc1)NC(=O)[C@@H](N)[C@@H](C)O)C(=O)N[C@@H](CCCNC(=N)N)C(=O)N[C@@H](C)C(=O)O` [H-Thr-Phe-Gln-Ala-Phe(p-NO2)-Pro-Leu-Arg-Ala-OH] (H-TFQA[Phe(4-NO2)]PLRA-OH): the “ratio Kcat /Km” value in experiment [1] is listed as ~23,000 M^-1 s^-1.

With `CCCC[C@H](NC(=O)[C@@H](NC(=O)[C@@H](NC(=O)c1ccccc1N)[C@@H](C)O)[C@@H](C)CC)C(=O)N[C@@H](Cc1ccc([N+](=O)[O-])cc1)C(=O)N[C@@H](CCC(N)=O)C(=O)N[C@@H](CCCNC(=N)N)C(N)=O` [Abz-NF^* -6, Abz-Thr-Ile-Nle-Phe(p-NO2)-Gln-Arg-NH2] (H-[2Abz]TI[Nle][Phe(4-NO2)]QR-NH2), the “amount of cleavage determined by HPLC” value on HIV protease (0.1 mM substrate, 1 hour, in the absence of inhibition) is recorded as “complete cleavage”. Further, the Km at synthetic HIV protease (Lineweaver-Burk plot, velocities from the linear phase) stood at 110 µM. At synthetic HIV protease (synthetic HIV protease), the Kcat was 2.9 s⁻¹, the Vmax came to 3.45 mM-mil^-1 and the “ratio Kcat /Km” value was 26,364 M^-1 s^-1.

With `CCCC[C@H](NC(=O)[C@@H](NC(=O)c1ccccc1N)[C@@H](C)CC)C(=O)N[C@@H](Cc1ccc([N+](=O)[O-])cc1)C(=O)N[C@@H](CCC(N)=O)C(=O)N[C@@H](CCCNC(=N)N)C(N)=O` [Abz-Ile-Nle-Phe(p-NO2)-Gln-Arg-NH2] (H-[2Abz]I[Nle][Phe(4-NO2)]QR-NH2), on HIV protease (analog with the Abz group at position P3, compared with Abz-NF*-6), the cleavage efficiency entry is given as “dramatically reduced”.
